Measured values as given in patent publication US20260209242A1, “CAMPTOTHECIN DERIVATIVE, PHARMACEUTICAL COMPOSITION, AND PREPARATION METHOD AND USE THEREFOR” (priority 2022, published 2026).
In brackets after ≈: the same amount, converted by molar mass. Read-outs that look alike come from different tables or passages of the source.

Tests used:
SK-BR-3 = test: Inhibition of proliferation of cells SK-BR-3 (CelltiterGlo, 72 h); type: cell-based; settings: Homo sapiens; SK-BR-3 cells, 72 h, CTG; read-out: IC50 (nM), antiproliferative activity on SK-BR-3
Description: (§1) • (1) Cell plating: first, tumor cells SK-BR-3 were cultured using a corresponding culture medium, trypsinized, centrifuged, resuspended for counting, adjusted to an appropriate concentration, and then plated on a 384-well plate. • (2) Co-incubation of the compounds and tumor cells: after the cells adhered to the wall, 100 nL of a diluted bioactive substance (test compound) was added to the cell culture plate using ECHO, the final concentration of DMSO in wells of the cell plate was 0.33%, and the incubation was performed in an incubator at 37° C. with 5% CO2 for 72 h. • (3) After the incubation was complete, 30 μL of a CTG reagent (CelltiterGlo kit) was added to each well. The culture was oscillated on a fast oscillator for 2 min, centrifuged at 1,000 rpm for 1 min, and kept away from light at room temperature for 30 min. The chemiluminescence signal value was read using an Envision instrument. • (4) Cell viability detection: IC50 was calculated using GraphPad Prism 8 software, and the IC50 of the compounds was obtained using the following nonlinear fitting formula (see Table 1):
[formula] • Y: inhibition rate; X: log value of compound concentration-,
(§2) [formula] • high-reading control wells: cells with addition of 100 nL DMSO; and • low-reading control wells: cell-free wells.

NCI-N87 = test: Inhibition of proliferation of cells NCI-N87 (CelltiterGlo, 72 h); type: cell-based; settings: Homo sapiens; NCI-N87 cells, 72 h, CTG; read-out: IC50 (nM), antiproliferative activity on cells NCI-N87
Description: as §1, with “NCI-N87” for “SK-BR-3”, “[…]” for “5%”, “3):” for “1):”
[formula] • Y: inhibition rate, X: log value of compound concentration;
as §2

[1] = Kinetic solubility test in PBS 7.4; type: physicochemical
Description: 10 mM stock solutions of the test substances 6-2, 11-2, 17-2, Dxd, and the control drugs progesterone and diclofenac were prepared using DMSO respectively.
15 μL of 10 mM stock solution of each of the test substances was added to a corresponding position of a corresponding 96-well plate in a specified sequence. 485 μL of the PBS 7.4 was added to a corresponding vial on a sample plate. The experiment was run in duplicate. Each vial was additionally provided with a stirring rod and was plugged. Then, the sample plate was transferred in a thermostatic mixer, and oscillated at a revolving speed of 1,100 rpm at 25° C. for 2 h. 2 h later, the plug was removed, the stirring rod was attracted away with a large magnet, and then the sample was transferred from the sample plate to the filter plate. Negative pressure was generated using a vacuum pump to filter the sample. 5 μL of filtrate and 5 μL of blank DMSO were transferred to another sample plate, and then 490 μL of internal standard water (acetonitrile:water=1:1) containing the internal standard was added. Depending on peak shapes, a certain proportion of internal standard water may be used to dilute the sample diluent to obtain better peak shapes.
6 μL was transferred from the 10 mM DMSO stock solution plate to a blank plate, and was prepared into a 300 μM standard substance solution with addition of 194 μL of DMSO. 5 μL was transferred from the 300 μM standard substance solution plate to still another blank plate, and then 5 μL of blank buffer and 490 μL of the internal standard water containing the internal standard (acetonitrile:water=1:1) were added until a final concentration of the standard substance solution was 3 μM.
An injection plate was transferred on an injection tray of an autosampler to evaluate the sample by LC/MS analysis.
All calculations were performed using Microsoft Excel.
The sample filtrate was analyzed and quantified by qualitative and quantitative LC/MS of standard substance peaks at known concentrations. The calculation formula for the solubility values of the reference drugs and the test substances are as follows:
[Sample] is the compound concentration, DFSample refers to the sample dilution factor, [STD] is the standard substance concentration of the compound, AREAStd is the standard substance peak area of the compound, and AREASample is the peak area of the compound sample.

CYP3A4 = target: T1, CYP3A4 (Homo sapiens, UniProt P08684); test: Inhibition on human hepatomicrosomes CYP3A4; type: in vitro ADME
T1 construct: from tissue; host or cells: human liver microsomes
T1 sequence (P08684 whole entry): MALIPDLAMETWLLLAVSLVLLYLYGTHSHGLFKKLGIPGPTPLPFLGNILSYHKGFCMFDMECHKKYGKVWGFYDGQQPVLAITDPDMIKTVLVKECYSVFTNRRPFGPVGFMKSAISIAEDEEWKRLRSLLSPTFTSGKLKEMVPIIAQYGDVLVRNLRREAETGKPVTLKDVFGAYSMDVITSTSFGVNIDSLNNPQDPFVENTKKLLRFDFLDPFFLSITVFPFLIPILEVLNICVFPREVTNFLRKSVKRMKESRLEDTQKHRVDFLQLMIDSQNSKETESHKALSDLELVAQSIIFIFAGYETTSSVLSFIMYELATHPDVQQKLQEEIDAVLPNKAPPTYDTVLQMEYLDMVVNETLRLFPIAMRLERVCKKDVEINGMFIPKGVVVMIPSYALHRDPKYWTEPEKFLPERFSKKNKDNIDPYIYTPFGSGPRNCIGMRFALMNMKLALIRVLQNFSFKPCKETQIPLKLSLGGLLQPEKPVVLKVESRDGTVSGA

[2] = Stability of compounds in human plasma; type: in vitro ADME
Description: • (1) 199 μL of human plasma was added to the culture plate of each cell. The culture plate was preheated to 37° C., and kept at this temperature for 15 min. • (2) After preincubation, 1 μL of 1 mmol/L each test compound and 1 μL of 1 mmol/L control compound were added to 199 μL of plasma, so that a final concentration of each test compound was 5 μmol/L and that of the control compound was 5 gmol/L. The final concentration of the organic solvent was 0.5%. The experiment would be duplicated twice. • (3) Reaction samples were incubated at 37° C. • (4) The reaction was stopped by adding 600 μL of cold methanol containing the internal standard at 0, 1, 2, 6, and 24 h. Each sample was vortex mixed for 10 min, and then centrifuged at 3,220 g for 30 min to precipitate the protein. […] Based on the signal response and peak shapes of liquid chromatography-mass spectrometry (LC-MS), the supernatant would be diluted with ultrapure water.
All calculations were performed using Microsoft Excel. The peak area ratio was determined from the chromatogram of extracted ions. The percentage of compounds remaining at each time point was calculated as per the following formula: […]

CYP2D6 = CYP2D6 (Homo sapiens, UniProt P10635); test: Inhibition on human hepatomicrosomes CYP2D6
Chain of CYP2D6 (P10635 whole entry): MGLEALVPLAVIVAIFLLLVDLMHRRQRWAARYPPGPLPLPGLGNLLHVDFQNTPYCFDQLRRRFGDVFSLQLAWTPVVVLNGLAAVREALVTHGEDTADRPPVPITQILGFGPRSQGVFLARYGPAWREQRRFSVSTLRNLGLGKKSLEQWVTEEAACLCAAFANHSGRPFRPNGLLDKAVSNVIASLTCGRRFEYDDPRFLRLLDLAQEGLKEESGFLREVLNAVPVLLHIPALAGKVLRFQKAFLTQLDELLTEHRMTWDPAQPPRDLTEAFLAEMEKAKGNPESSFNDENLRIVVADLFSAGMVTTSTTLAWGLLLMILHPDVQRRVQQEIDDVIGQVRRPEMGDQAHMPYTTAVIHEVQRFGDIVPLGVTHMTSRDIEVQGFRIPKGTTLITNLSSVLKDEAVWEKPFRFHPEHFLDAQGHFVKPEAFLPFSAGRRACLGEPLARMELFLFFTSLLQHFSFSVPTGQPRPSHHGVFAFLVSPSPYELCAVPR

With `CC[C@@]1(O)C(=O)OCc2c1cc1n(c2=O)Cc2c-1nc1cc(F)c(C)c3c1c2[C@@H](NC(=O)[C@@H](O)C1CC1)CCC3` [Compound 11-2, (S)-2-cyclopropyl-N-((1S,10S)-10-ethyl-6-fluoro-10-hydroxy-5-methyl-11,14-dioxo-1,2,3,4,10,11,14,16-octahydro-13H-cyclohepta[de]pyrano[3′,4′:6,7]indolizino[1,2-b]quinolin-1-yl)-2-hydroxyacetamide] the IC50 (SK-BR-3) was 2.4 nM, the IC50 (NCI-N87) was 2.3 nM and the “solubility in the PBS 7.4 compared with Dxd (in words)” value [1] was “significantly better solubility in the PBS 7.4 than Dxd”. The solubility at 2 h ([1]; 25 °C, pH 7.4, aqueous buffer, kinetic from dmso stock) was 34 µM (≈ 18.6 µg/mL), the IC50 (CYP3A4) was greater than 30 µM and the IC50 (CYP3A4; read-out: 3A4T (IC50 μM), human hepatomicrosomes, substrate testosterone) was greater than 30 µM. The “Residual percentage (%) 1 h” value ([2]; 1 h, 5 μmol/L) was 96.80%, the “Residual percentage (%) 2 h” value ([2]; 2 h, 5 μmol/L) was 92.06% and the “Residual percentage (%) 6 h” value ([2]; 6 h, 5 μmol/L) was 94.45%. The “Residual percentage (%) 24 h” value ([2]; 24 h, 5 μmol/L) was 88.81%, the “stability in human plasma (in words)” value ([2]; plasma) was “good stability in human plasma” and the IC50 (CYP2D6) was greater than 30000 nM.
